Assay results taken from patent EP0056616A2, “Cycloheptene derivatives, process for their preparation, and pharmaceuticals containing them” (F. HOFFMANN-LA ROCHE & CO. Aktiengesellschaft, priority 1981, dated 1982).

Legend:
Histamin-H1 = assay: Protection against lethal histamine dihydrochloride dose (histamine H1 antagonism) in guinea pigs; type: in vivo, Meerschweinchen; details: 10 per dose, test substance orally 1 hour before lethal Histamin-dihydrochlorid (10 mg/kg s.c.), dose protecting 50% of animals from death, probit method
Text: Ueberraschenderweise hat es sich gezeigt, dass die erfindungsgemässen Produkte die H1-Wirkung des Histamins zu hemmen vermögen. Die Verbindungen der allgemeinen Formel I und ihre pharmazeutisch annehmbaren Säureadditionssalze sind somit wertvolle Histamin-H antagonistische Wirkstoffe und eignen sich insbesondere zur Bekämpfung bzw. Verhütung von allergischen Reaktionen, wie beispielsweise Urtikaria, Heuschnupfen, Anaphylaxie und Arzneimittelüberempfindlichkeit. Diese Histamin-H1 antagonistischen Eigenschaften können wie nachfolgend beschrieben an männlichen und weiblichen, 240 bis 300 g schweren Meerschweinchen (SPF, Füllinsdorf) ermittelt werden:
Den Versuchstieren (10 pro Dosis) wird während 24 Stunden vor Versuchsbeginn das Futter entzogen, wobei Wasser ad libitum erhältlich ist. Eine Stunde nach oraler Verabreichung einer Lösung der Testsubstanz (10 ml/kg) erhalten die Versuchstiere eine letale Dosis von Histamin-dihydrochlorid (10 mg/kg s.c.). Ungeschützte Tiere, d.h. nur mit Histamin-dihydrochlorid behandelte Tiere, sterben innerhalb einer Stunde. Nach Auszählen der überlebenden, geschützten'Tiere wird die ED50 nach der Probitmethode ermittelt. Die ED50 ist diejenige Dosis, die notwendig ist, um 50% der mit der Testsubstanz behandelten Tiere vor dem Tod zu schützen.

[1] = Acute toxicity after single oral administration to mice; details: mouse, in vivo, read-out: DL50 (the source's name)
Text: Die nachfolgende Tabelle enthält für zwei repräsentative Vertreter der durch die allgemeine Formel I umfassten Verbindungsklasse die ED50-Werte, sowie Angaben über deren akute Toxizität bei einmaliger oraler Verabreichung an Mäusen (DL50 in m^g/k^g).

| Compound | ED50 (Histamin-H1) | LD50 [1] |
| --- | --- | --- |
| Cc1cccc2c1CCC1=C(CC=CC1)C2CCCN(C)C (stereo not shown) [A, 4,5,10,11-Tetrahydro-N,N,9-trimethyl-1H-dibenzo[a,d]-cyclohepten-5-propylamin] | 0,4 mg/kg p.o. | 600 to 1200 mg/kg |
| Cc1cccc2c1CCC1=C(CCCC1)C2CCCN(C)C (stereo not shown) [B, 2,3,4,5,10,11-Hexahydro-N,N,9-trimethyl-1H-dibenzo-[a,d]cyclohepten-5-propylamin] | 0,9 mg/kg p.o. | 250 to 500 mg/kg |
